Series [1] addresses T1, terbium chelate-labeled menin / FITC-MBM1 peptide (Menin/MLL) (Homo sapiens, UniProt O00255, T541A).
T1 construct: Menin (a. a. l-610-6×his tag) was labeled with terbium cryptate as follows
T1 sequence (O00255 with tags, fused parts or gaps T541A): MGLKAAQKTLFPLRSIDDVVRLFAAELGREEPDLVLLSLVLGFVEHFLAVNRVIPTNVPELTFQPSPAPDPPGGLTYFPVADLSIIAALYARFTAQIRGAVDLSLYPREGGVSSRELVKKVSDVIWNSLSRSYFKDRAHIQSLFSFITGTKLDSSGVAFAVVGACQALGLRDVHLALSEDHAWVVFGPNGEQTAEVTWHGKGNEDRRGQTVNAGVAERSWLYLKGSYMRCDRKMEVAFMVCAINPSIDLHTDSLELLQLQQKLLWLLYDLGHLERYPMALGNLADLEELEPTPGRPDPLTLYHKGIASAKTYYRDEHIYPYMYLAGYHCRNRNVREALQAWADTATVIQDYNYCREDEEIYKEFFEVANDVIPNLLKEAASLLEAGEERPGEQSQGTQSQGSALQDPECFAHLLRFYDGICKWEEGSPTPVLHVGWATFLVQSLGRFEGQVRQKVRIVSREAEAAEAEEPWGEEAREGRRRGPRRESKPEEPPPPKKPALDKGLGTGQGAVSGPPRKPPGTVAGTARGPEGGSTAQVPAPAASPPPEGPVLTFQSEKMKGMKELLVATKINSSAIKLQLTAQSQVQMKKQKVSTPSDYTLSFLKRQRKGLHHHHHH
Description: Menin/MLL homogenous time-resolved fluorescence (HTRF) assay. As to conditions: read-out: (2) Menin HTRF assay (IC50 (nM)). The class given is binding. On the procedure: 2) Menin/MLL Homogenous Time-Resolved Fluorescence (HTRF) Assay
To an untreated, white 384-well microtiter plate was added 40 nL 200× test compound in DMSO and 4 μL 2× terbium chelate-labeled menin (vide infra for preparation) in assay buffer (40 mM Tris .HCl, pH 7.5, 50 mM NaCl, 1 mM DTT and 0.05% Pluronic F-127). After incubation of test compound and terbium chelate-labeled menin for 5 min at ambient temperature, 4 μL 2×FITC-MBM1 peptide (FITC-P-alanine-SARWRFPARPGT-NH2) in assay buffer was added, the microtiter plate centrifuged at 1000 rpm for 1 min and the assay mixtures incubated for 15 min at ambient temperature. The relative amount of menin ⋅FITC-MBM1 complex present in an assay mixture is determined by measuring the homogenous time-resolved fluorescence (HTRF) of the terbium/FITC donor/acceptor fluorphore pair using a BMG Pherastar plate reader (ex. 337 nm/terbium cm. 490 nm/FITC cm. 520 nm) at ambient temperature. The degree of fluorescence resonance energy transfer (the HTRF value) is expressed as the ratio of the fluorescence emission intensities of the FITC and terbium fluorophores (P^m 520 nm//F^em 490 nm). The final concentrations of reagents in the binding assay are 100 pM terbium chelate-labeled menin, 75 nM FITC-MBM1 peptide and 0.5%) DMSO in assay buffer. Dose-response titrations of test compounds are conducted using an 11 point, three-fold serial dilution scheme, starting typically at 25 μM.
Compound potencies were determined by first calculating % inhibition at each compound concentration according to equation 1: % inhibition=((HC−LC)−(HTRF^compound−LC))/(HC−LC))*100 (Eqn 1)
Where LC and HC are the HTRF values of the assay in the presence or absence of a saturating concentration of a compound that competes with FITC-MBM1 for binding to menin, and HTRF^compound is the measured HTRF value in the presence of the test compound. HC and LC HTRF values represent an average of at least 16 replicates per plate.
Where Bottom and Top are the lower and upper asymptotes of the dose-response curve, respectively, IC50 is the concentration of compound that yields 50% inhibition of signal and h is the Hill coefficient.
Preparation of Terbium cryptate labeling of Menin: Menin (a. a. l-610-6×his tag) was labeled with terbium cryptate as follows. 2 mg of Menin was buffer exchanged into 1× phosphate buffered saline. 16 uM Menin was incubated with 4-fold molar excess NHS-terbium cryptate (Cisbio Bioassays, Bedford, Mass.) for 2 hours at room temperature. The labeled protein was purified away from free label by running the reaction over a Superdex 200 Increase 10/300 GL column at 0.75 ml/min. Peak fractions were collected, aliquoted and frozen at −80° C.
In general terms: TR-FRET usually uses a lanthanide donor and a delayed reading to cut background.

Another series relates to MV-4-1 1 cells (MLL-AF4). Kind of series: Proliferation assay (spheroid-like growth, 8 d, live-cell imaging), MV-4-11. The class given is cell-based, human. As to conditions: Homo sapiens, MV4-11, 192 h, MV-4-11 cells, absolute IC50 from AUC of confluence, read-out: (3) Spheroid assay MV-4-11 (IC50 (μM)). On the procedure:
The anti-proliferative effect of menin/MLL protein/protein interaction inhibitor test compounds was assessed in human leukemia cell lines. The cell lines MV-4-1 1 and MOLM14 harbor MEL translocations and express the MEL fusion proteins MLL-AF4 and MLL-AF9, respectively, as well as the wildtype protein from the second allele. […] K562 was used as a control cell line containing two MLL wildtype alleles in order to exclude compounds that display general cytotoxic effects.
MV-4-1 1 and MOLM14 were cultured in RPMI-1640 (Sigma Aldrich) supplemented with 10% fetal bovine serum (HyClone), 2 mM L-glutamine (Sigma Aldrich) and 50 μg/ml gentamycin (Gibco). K562 were propagated in RPMI-1640 (Sigma Aldrich) supplemented with 20% fetal bovine serum (HyClone), 2 mM L-glutamine (Sigma Aldrich) and 50 μg/ml gentamycin (Gibco).
In order to assess the anti-proliferative effects, 1,500 MV-4-1 1, 300 MOLM14 or 750 K562 cells were seeded in 200 μl media per well in 96-well round bottom, ultra-low attachment plates (Costar, catalogue number 7007). Cell seeding numbers were chosen based on growth curves to ensure linear growth throughout the experiment. Test compounds were added at different concentrations and the DMSO content was normalized to 0.3%>. Cells were incubated for 8d at 37° C. and 5% C02. Spheroid like growth was monitored in real-time by live-cell imaging (IncuCyteZOOM, Essenbio, 4× objective) acquiring one image every four hours for 8d. Confluence (%) as a measure of spheroid size was determined using an integrated analysis tool.
In order to determine the cumulative effect of the test compounds over time, the area under the curve (AUC) in a plot of confluence against time was calculated. Confluence at the beginning of the experiment (t=0) was used as baseline for the AUC calculation.
Absolute IC50 values were calculated according to the following procedure: % Control=(AUC sample/AUC control)*100 AUC control=mean AUC of control values(cells without compound/DMSO as vehicle control)
A non-linear curve fit was applied using the least squares (ordinary) fit method to the plot of % control versus compound concentration. Based on this, the absolute IC50 value (half maximal inhibitory concentration of the test compound causing an anti-proliferative effect of 50% relative to the vehicle control) was calculated.

Structures can show the parent of a compound that is named as a salt.

Melting point and IC50 data for 28 compounds are collected here from patent publication US11530226B2, “Azepane inhibitors of menin-MLL interaction” (Janssen Pharmaceutica NV, priority 2016, dated 2022).

Usually melting point stands for the temperature of the solid-liquid transition. For the compound `C[C@@H](N[C@@H]1CCCN(c2ncnc3sc(CC(F)(F)F)cc23)CC1)c1cnn(C)c1` (single isomer, unassigned) (as salt: HCl) [Compound 54A], the melting point came to 160 °C.

For orientation: IC50 means the concentration at which inhibition is half-maximal. As for `CNC(=O)c1ccc(CNC2CCCN(c3ncnc4sc(CC(F)(F)F)cc34)CC2)cc1` (stereo not shown) [Compound 49], the values for the IC50 (in series [1]; in the series on MV-4-1 1 cells (MLL-AF4)) were 45 nM and 1.1 µM, respectively.

As for `Cn1cc(CN(Cc2ccccc2)[C@@H]2CCCN(c3ncnc4sc(CC(F)(F)F)cc34)CC2)cn1` (single isomer, unassigned) [Compound 60A], the IC50 amounted to 493 nM in series [1] and 5.5 µM with MV-4-1 1 cells (MLL-AF4).

Regarding `Cn1cncc1CN[C@@H]1CCCN(c2ncnc3sc(CC(F)(F)F)cc23)CC1` (single isomer, unassigned) [Compound 28], the IC50 was 149 nM in series [1] and 3.4 µM in the series on MV-4-1 1 cells (MLL-AF4).

Turning to `Cn1cc(CNC2CCCN(c3ncnc4sc(CC(F)(F)F)cc34)CC2)cn1` (racemic) [Compound 11], the figures for the IC50 (in series [1]; with MV-4-1 1 cells (MLL-AF4)) were 69 nM and 2 µM, respectively.

For `CC(C)[C@H](NC1CCCN(c2ncnc3sc(CC(F)(F)F)cc23)CC1)C1CNC1` (single isomer, unassigned) [Compound 33], the IC50 in series [1] turned out to be 27 nM; in the series with MV-4-1 1 cells (MLL-AF4) it was 2 µM.

`FC(F)(F)Cc1cc2c(N3CCCC(OCc4ccccc4)CC3)ncnc2s1` (stereo not shown) [Compound 44]: the half-inhibitory concentration (IC50) was 137 nM in series [1] and 4.3 µM with MV-4-1 1 cells (MLL-AF4).

As to `Cc1ccccc1CNC1CCCN(c2ncnc3sc(CC(F)(F)F)cc23)CC1` (stereo not shown) [Compound 19], the IC50 in series [1] was determined as 41 nM; in the series on MV-4-1 1 cells (MLL-AF4), 2 µM.

`Cn1cc2c(n1)CCC[C@@H]2N[C@@H]1CCCN(c2ncnc3sc(CC(F)(F)F)cc23)CC1` (single isomer, unassigned) [Compound 66B]: the IC50 worked out at 164 nM in series [1] and 3.8 µM in the series on MV-4-1 1 cells (MLL-AF4).

For the compound `OCCN(Cc1ccccc1)C1CCCN(c2ncnc3sc(CC(F)(F)F)cc23)CC1` (stereo not shown) [Compound 50], the values for the IC50 (in series [1]; with MV-4-1 1 cells (MLL-AF4)) were 185 nM and 2.3 µM, respectively.

On to `Cc1ccc(CN[C@H]2CCCN(c3ncnc4sc(CC(F)(F)F)cc34)CC2)c(C)c1` (single isomer, unassigned) [Compound 9B], for which the half-inhibitory concentration (IC50) in series [1] was found to be 22 nM; with MV-4-1 1 cells (MLL-AF4), 0.9 µM.

As for `CN(C)CCN(Cc1ccccc1)[C@H]1CCCN(c2ncnc3sc(CC(F)(F)F)cc23)CC1` (single isomer, unassigned) [Compound 57B], the values for the IC50 (in series [1]; in the series with MV-4-1 1 cells (MLL-AF4)) were 222 nM and 4.4 µM, respectively.

As to `C[C@H]1CCN(c2ncnc3sc(CC(F)(F)F)cc23)CC[C@H]1NCc1ccccc1` (single isomer, unassigned) [Compound 68A], the IC50 in series [1] amounted to 103 nM; with MV-4-1 1 cells (MLL-AF4), 1.9 µM.

As for `CC(C)[C@@H](N[C@H]1CCCN(c2ncnc3sc(CC(F)(F)F)cc23)CC1)C1CNC1` (single isomer, unassigned) [Compound 36], the figures for the IC50 (in series [1]; in the series on MV-4-1 1 cells (MLL-AF4)) were 170 nM and 2.5 µM, respectively.

For the compound `Cc1ccc(CNC2CCCN(c3ncnc4sc(CC(F)(F)F)cc34)CC2)c(C)c1` (stereo not shown) [Compound 9], the IC50 in series [1] is 36 nM; with MV-4-1 1 cells (MLL-AF4), 1.4 µM.

Consider `CN(C)CCN(Cc1ccccc1)[C@@H]1CCCN(c2ncnc3sc(CC(F)(F)F)cc23)CC1` (single isomer, unassigned) [Compound 57A], for which the IC50 came out at 194 nM in series [1] and 2.8 µM in the series on MV-4-1 1 cells (MLL-AF4).

As for `Cn1ncc2c1CCC[C@@H]2N[C@@H]1CCCN(c2ncnc3sc(CC(F)(F)F)cc23)CC1` [Compound 65B], the half-inhibitory concentration (IC50) in series [1] amounted to 284 nM; in the series with MV-4-1 1 cells (MLL-AF4), 4.3 µM.

Turning to `FC(F)(F)Cc1cc2c(N3CCC[C@@H](NCc4cccnc4)CC3)ncnc2s1` (single isomer, unassigned) [Compound 29], the IC50 was found to be 40 nM in series [1] and 2.1 µM in the series on MV-4-1 1 cells (MLL-AF4).

In the case of `Fc1ccc(CNC2CCCN(c3ncnc4sc(CC(F)(F)F)cc34)CC2)c(F)c1` (stereo not shown) [Compound 7], the IC50 in series [1] came to 55 nM; with MV-4-1 1 cells (MLL-AF4), 1.6 µM.

For `FC(F)(F)Cc1cc2c(N3CCC[C@@H](NCc4ccnnc4)CC3)ncnc2s1` (single isomer, unassigned) [Compound 30], the results for the half-inhibitory concentration (IC50) (in series [1]; in the series on MV-4-1 1 cells (MLL-AF4)) were 186 nM and 4.45 µM, respectively.

Consider `CN(C)CCCN(Cc1ccccc1)C1CCCN(c2ncnc3sc(CC(F)(F)F)cc23)CC1` (stereo not shown) [Compound 53], for which the half-maximal inhibitory concentration (IC50) in series [1] is 204 nM; in the series on MV-4-1 1 cells (MLL-AF4), 2.1 µM.

In the case of `Fc1cccc(CNC2CCCN(c3ncnc4sc(CC(F)(F)F)cc34)CC2)c1` (stereo not shown) [Compound 24], the concentration for half-maximal inhibition (IC50) was determined as 53 nM in series [1] and 1.2 µM with MV-4-1 1 cells (MLL-AF4).

On to `Cn1cc(CN(Cc2ccccc2)[C@H]2CCCN(c3ncnc4sc(CC(F)(F)F)cc34)CC2)cn1` (single isomer, unassigned) [Compound 60B], for which the IC50 in series [1] came to 295 nM; with MV-4-1 1 cells (MLL-AF4), 2.4 µM.

Consider `COc1ccc(C)cc1CNC1CCCN(c2ncnc3sc(CC(F)(F)F)cc23)CC1` (stereo not shown) [Compound 18], for which the IC50 in series [1] came out at 563 nM; with MV-4-1 1 cells (MLL-AF4), 4.7 µM.

`CC(C)[C@@H](NC1CCCN(c2ncnc3sc(CC(F)(F)F)cc23)CC1)C1CNC1` (single isomer, unassigned) [Compound 34]: the values for the IC50 (in series [1]; in the series on MV-4-1 1 cells (MLL-AF4)) were 216 nM and 3.2 µM, respectively.

Take `Fc1ccccc1CNC1CCCN(c2ncnc3sc(CC(F)(F)F)cc23)CC1` (stereo not shown) [Compound 8]: the values for the concentration for half-maximal inhibition (IC50) (in series [1]; in the series on MV-4-1 1 cells (MLL-AF4)) were 64 nM and 1.6 µM, respectively.

For `CC(C)[C@H](N[C@@H]1CCCN(c2ncnc3sc(CC(F)(F)F)cc23)CC1)C1CNC1` (single isomer, unassigned) [Compound 31], the values for the concentration for half-maximal inhibition (IC50) (in series [1]; with MV-4-1 1 cells (MLL-AF4)) were 34 nM and 1.4 µM, respectively.

With `Cn1cc(CNC2CCCN(c3ncnc4sc(CC(F)(F)F)cc34)CC2)cn1` (single isomer, unassigned) [Compound 11A], the values for the IC50 (in series [1]; in the series on MV-4-1 1 cells (MLL-AF4)) were 55 nM and 1.6 µM, respectively.
